Data taken from patent publication US10550105B2 (Ribon Therapeutics Inc., priority 2018, dated 2020).

molecular target: PARP7 (Homo sapiens (Human), UniProt Q7Z3E1); test: Enzymatic assay for inhibition of PARP7: TR-FRET displacement of biotinylated Probe A from the TIPARP active site; type: binding; conditions: Table A-1
Procedure, shortened: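 Read-out: 665/615 nm emission ratio (ex 320 nm, 90 μs delay) indexing bound TIPARP–Probe A. Final incubation 30 min, 25° C; compounds in dose response. Curve fit of % inhibition vs concentration; Hill slope floating or fixed at 1 (3-parameter).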

Chain of PARP7 (Q7Z3E1 whole entry): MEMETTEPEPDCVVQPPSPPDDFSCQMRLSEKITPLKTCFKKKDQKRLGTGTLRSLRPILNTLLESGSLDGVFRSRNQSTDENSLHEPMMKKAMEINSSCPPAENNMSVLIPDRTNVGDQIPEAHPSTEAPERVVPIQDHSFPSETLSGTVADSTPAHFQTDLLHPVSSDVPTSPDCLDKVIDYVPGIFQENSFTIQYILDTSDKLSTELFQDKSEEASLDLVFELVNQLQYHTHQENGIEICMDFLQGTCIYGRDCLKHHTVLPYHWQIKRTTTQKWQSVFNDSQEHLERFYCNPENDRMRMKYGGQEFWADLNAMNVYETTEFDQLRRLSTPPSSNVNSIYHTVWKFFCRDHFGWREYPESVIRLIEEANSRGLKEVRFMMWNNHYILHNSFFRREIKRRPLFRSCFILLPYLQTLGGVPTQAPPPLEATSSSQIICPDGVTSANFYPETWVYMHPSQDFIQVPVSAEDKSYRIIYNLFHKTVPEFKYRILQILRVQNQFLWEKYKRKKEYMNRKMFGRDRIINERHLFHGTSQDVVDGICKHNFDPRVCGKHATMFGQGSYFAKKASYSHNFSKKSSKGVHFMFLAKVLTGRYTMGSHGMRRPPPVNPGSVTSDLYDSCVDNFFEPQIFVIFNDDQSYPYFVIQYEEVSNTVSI

Row | SMILES | IC50 [nM]
1 | O=C(c1cncc(OC[C@H]2c3ccccc3CN2c2cn[nH]c(=O)c2C(F)(F)F)c1)N1CCN(c2ncc(C(F)(F)F)cn2)CC1 [Example 393, (R)-4-(Trifluoromethyl)-5-(1-(((5-(4-(5-(trifluoromethyl)pyrimidin-2-yl)piperazine-1-carbonyl)pyridin-3-yl)oxy)methyl)isoindolin-2-yl)pyridazin-3(2H)-one] | 100 to 1000
2 | CN(CCOCCCN1CCN(c2ccc(C#N)cn2)CC1)c1cn[nH]c(=O)c1C(F)(F)F [Example 526, 6-[4-[3-(2-[Methyl[6-oxo-5-(trifluoromethyl)-1,6-dihydropyridazin-4-yl]amino]ethoxy)propyl]piperazin-1-yl]pyridine-3-carbonitrile] | 100 to 1000
3 | COc1cccc2c1CN(c1cn[nH]c(=O)c1C(F)(F)F)C2C (stereo not shown) [Example 308, 5-(4-Methoxy-1-methylisoindolin-2-yl)-4-(trifluoromethyl)pyridazin-3(2H)-one] | 100 to 1000
4 | COC[C@H](COCCC(=O)N1CCN(c2ncc(Cl)cn2)CC1)Oc1cn[nH]c(=O)c1C(F)(F)F (single isomer, unassigned) | 100 to 1000
5 | N#Cc1ccc(N2CCN(C(=O)c3ccnc(OC[C@@H]4c5ccccc5CN4c4cn[nH]c(=O)c4C(F)(F)F)c3)CC2)nc1 (single isomer, unassigned) [Example 36 Isomer B] | < 100
6 | CC(=O)N1CCC(Oc2ccnc3c2CN(c2cn[nH]c(=O)c2C(F)(F)F)C3)CC1 [Example 338, 5-(4-((1-Acetylpiperidin-4-yl)oxy)-5,7-dihydro-6H-pyrrolo[3,4-b]pyridin-6-yl)-4-(trifluoromethyl)pyridazin-3(2H)-one] | < 100
7 | O=C(C[C@H]1CC[C@@H](CNc2cn[nH]c(=O)c2C(F)(F)F)O1)N1CCN(c2ncc(Cl)cn2)CC1 (single isomer, unassigned) [Example 567 Isomer A] | < 100
8 | O=C(c1cccc(OC[C@H]2c3ccccc3CN2c2cn[nH]c(=O)c2C(F)(F)F)c1)N1CCN(c2ncc(C(F)(F)F)cn2)CC1 [Example 391, (R)-4-(Trifluoromethyl)-5-(1-((3-(4-(5-(trifluoromethyl)pyrimidin-2-yl)piperazine-1-carbonyl)phenoxy)methyl)isoindolin-2-yl)pyridazin-3(2H)-one] | ≥ 1000
9 | Cc1c(N2CCC[C@H]2COCCC(=O)N2CCN(c3ccc(C#N)cn3)CC2)cn[nH]c1=O [Example 480, (S)-6-(4-(3-((1-(5-Methyl-6-oxo-1,6-dihydropyridazin-4-yl)pyrrolidin-2-yl)methoxy)propanoyl)piperazin-1-yl)nicotinonitrile] | < 100
10 | N#Cc1ccc(N2CCN(C(=O)c3cccc(OC[C@@H]4C[C@@H](O)CN4c4cn[nH]c(=O)c4C(F)(F)F)c3)CC2)nc1 [Example 52] | < 100
11 | N#Cc1ccc(N2CCN(C(=O)CCOCC(CO)Nc3cn[nH]c(=O)c3C(F)(F)F)CC2)nc1 (stereo not shown) [Example 529, 6-[4-[3-(3-Hydroxy-2-[[6-oxo-5-(trifluoromethyl)-1,6-dihydropyridazin-4-yl]amino]propoxy)propanoyl]piperazin-1-yl]pyridine-3-carbonitrile] | < 100
12 | N#Cc1ccc(N2CCN(C(=O)CCNC[C@@H]3CCCN3c3cn[nH]c(=O)c3C(F)(F)F)CC2)nc1 [Example 135, 6-[4-[3-([[(2S)-1-[6-oxo-5-(trifluoromethyl)-1,6-dihydropyridazin-4-yl]pyrrolidin-2-yl]methyl]amino)propanoyl]piperazin-1-yl]pyridine-3-carbonitrile] | < 100
13 | O=C(CCOCCOc1cn[nH]c(=O)c1C(F)(F)F)N1CCN(c2ccc(C(F)(F)F)cn2)CC1 [Example 536, 5-[2-(3-Oxo-3-[4-[5-(trifluoromethyl)pyridin-2-yl]piperazin-1-yl]propoxy)ethoxy]-4-(trifluoromethyl)-2,3-dihydroyridazin-3-one] | < 100
14 | N#Cc1ccc(N2CCC3(CC2)CN(C(=O)CCOC[C@@H]2CCCN2c2cn[nH]c(=O)c2C(F)(F)F)C3)nc1 [Example 105, 6-[2-(3-[[(2S)-1-[6-oxo-5-(trifluoromethyl)-1,6-dihydropyridazin-4-yl]pyrrolidin-2-yl]methoxy]propanoyl)-2,7-diazaspiro[3.5]nonan-7-yl]pyridine-3-carbonitrile] | 100 to 1000
15 | N#Cc1ccc(N2CCN(C(=O)[C@H]3CCC[C@@H](OC[C@@H]4CCCN4c4cn[nH]c(=O)c4C(F)(F)F)C3)CC2)nc1 (single isomer, unassigned) [Example 57 Isomer C] | 100 to 1000
16 | O=c1[nH]ncc(N2Cc3cc(F)c(N4CCOCC4)cc3C2)c1C(F)(F)F [Example 26, 5-[5-fluoro-6-(morpholin-4-yl)-2,3-dihydro-1H-isoindol-2-yl]-4-(trifluoromethyl)-2,3-dihydropyridazin-3-one] | < 100
17 | COC[C@@H](COCCC(=O)N1CCN(c2ccc(C#N)cn2)CC1)Nc1cn[nH]c(=O)c1C(F)(F)F (single isomer, unassigned) [Example 518B] | < 100

The remaining lines, values ahead:

Row | IC50 [nM] | SMILES
18 | < 100 | C[C@@H](COCCC(=O)N1CCN(c2ncc(C#N)s2)CC1)Oc1cn[nH]c(=O)c1C(F)(F)F [Example 711, (S)-2-(4-(3-(2-((6-Oxo-5-(trifluoromethyl)-1,6-dihydropyridazin-4-yl)oxy)propoxy)propanoyl)piperazin-1-yl)thiazole-5-carbonitrile]
19 | 100 to 1000 | N#Cc1ccc(N2CCN(C(=O)CCO[C@@H]3CCC[C@H]3Oc3cn[nH]c(=O)c3C(F)(F)F)CC2)nc1 (single isomer, unassigned) [Example 572 Isomer B]
20 | < 100 | COC[C@@H](COCCC(=O)N1CCN(c2ncc(C(F)(F)F)s2)CC1)Nc1cn[nH]c(=O)c1C(F)(F)F [Example 712, (S)-5-((1-Methoxy-3-(3-oxo-3-(4-(5-(trifluoromethyl)thiazol-2-yl)piperazin-1-yl)propoxy)propan-2-yl)amino)-4-(trifluoromethyl)pyridazin-3(2H)-one]
21 | < 100 | C[C@@H](COCCC(=O)N1CCC(Oc2ncc(C(F)(F)F)s2)C1)Nc1cn[nH]c(=O)c1C(F)(F)F (stereo partly drawn) [Example 720, 5-(((2S)-1-(3-Oxo-3-(3-((5-(trifluoromethyl)thiazol-2-yl)oxy)pyrrolidin-1-yl)propoxy)propan-2-yl)amino)-4-(trifluoromethyl)pyridazin-3(2H)-one]
22 | < 100 | N#Cc1ccc(N2CCN(C(=O)C[C@H]3CC[C@@H]([C@H]4c5ccccc5CN4c4cn[nH]c(=O)c4C(F)(F)F)O3)CC2)nc1 (single isomer, unassigned) [Example 612 Isomer A]
23 | < 100 | N#Cc1ccc(N2CCN(C(=O)CCOC[C@@H](CO)Oc3cn[nH]c(=O)c3C(F)(F)F)CC2)nc1 (single isomer, unassigned) [Example 573 Isomer B]
24 | < 100 | C[C@@H](COCCC(=O)N1CCN(c2ccc(C#N)cn2)CC1)Nc1cn[nH]c(=O)c1Cl [Example 597, 6-(4-[3-[(2S)-2-[(5-Chloro-6-oxo-1,6-dihydropyridazin-4-yl)amino]propoxy]propanoyl]piperazin-1-yl)pyridine-3-carbonitrile]
25 | 100 to 1000 | O=C(C[C@@H]1CC[C@@H](COc2cn[nH]c(=O)c2C(F)(F)F)O1)N1CCN(c2ncc(C(F)(F)F)cn2)CC1 (single isomer, unassigned) [Example 574 Isomer A]
